In brackets after ≈: the same amount, converted by molar mass.
Assays:
Type in all cases: cell-based
[1] = test system: Candida krusei ATCC 44507; experiment: Antifungal activity, growth inhibition (alamar Blue), Candida krusei; settings: for GI50, 50% growth inhibition concentration, Candida krusei ATCC 44507: GI50 versus drug non-addition growth
Protocol: (§1) Measuring method of the antifungal activities of the compounds of the present invention carried out in accordance with Japanese Journal of Medical Mycology, 40, 243-246, 1999, Japanese Society for Medical Mycology Standardization Committee, (alamar Blue), and the or 80% growth inhibition (GI50 or GI80) concentration (μg/ml) for drug non-addition growth as the positive control was measured.

[2] = test system: Saccharomyces cerevisiae AY-14; experiment: Antifungal activity, growth inhibition (alamar Blue), Saccharomyces cerevisiae; settings: GI80 versus drug non-addition growth
Protocol: as §1

[3] = test system: Candida albicans ATCC MYA-573; experiment: Antifungal activity, growth inhibition (alamar Blue), Candida albicans; settings: GI50 versus drug non-addition growth
Protocol: as §1

[4] = test system: Candida glabrata ATCC 48435; experiment: Antifungal activity, growth inhibition (alamar Blue), Candida glabrata; settings: GI80 versus drug non-addition growth
Protocol: as §1

Structure (SMILES) | GI50, 50% growth inhibition concentration, Candida krusei ATCC 44507 [1] [µg/mL] | GI80, 80% growth inhibition concentration, Saccharomyces cerevisiae AY-14 [2] [µg/mL] | GI50, 50% growth inhibition concentration, Candida albicans ATCC MYA-573 [3] [µg/mL] | GI80, 80% growth inhibition concentration, Candida glabrata ATCC 48435 [4] [µg/mL] | GI50 ([1]; Pichia kudriavzevii, ATCC44507, GI50 versus drug non-addition growth, read-out: GI50, 50% growth inhibition concentration, Candida krusei ATCC 44507) [µg/mL] | GI50 ([3]; read-out: GI50, 50% growth inhibition concentration, Candida albicans ATCC MYA-573) [µg/mL]
Cc1c(-c2ccccc2)c(N2CC[C@H](N(C)C)C2)n2nc(C(C)(C)C)cc2c1C#N [Example 62] | 4 (≈ 9.96 µM) | 2 (≈ 4.98 µM) | 4 (≈ 9.96 µM) | 2 (≈ 4.98 µM) | – | –
Cc1c(-c2ccccc2)c(N2CC[C@H](N(C)C)C2)n2nc(C(C)(C)COCc3ccccc3)nc2c1C#N [Example 39] | >4 | 0.063 (≈ 0.124 µM) | 0.5 (≈ 0.983 µM) | 0.25 (≈ 0.491 µM) | – | –
Cc1c(-c2ccccc2)c(N2CC[C@H](N(C)C)C2)n2cc(C(C)(C)C)nc2c1C#N [Example 9, (3′S)-2-tert-Butyl-5-(3-dimethylaminopyrrolidin-1-yl)-7-methyl-6-phenylimidazo[1,2-a]pyridine-8-carbonitrile] | >4 | 0.125 (≈ 0.311 µM) | 0.25 (≈ 0.623 µM) | 0.25 (≈ 0.623 µM) | – | –
Cc1c(-c2ccccc2)c(N2CC[C@H](N(C)C)C2)n2nc(C(C)(C)C)nc2c1C#N [Example 25] | >4 | 0.063 (≈ 0.157 µM) | 4 (≈ 9.94 µM) | 0.125 (≈ 0.311 µM) | – | –
C=C(C)c1nc2c(C#N)c(C)c(-c3ccccc3)c(N3CC[C@H](N(C)C)C3)n2n1 [Example 33] | 4 (≈ 10.3 µM) | 0.004 (≈ 0.0103 µM) | 4 (≈ 10.3 µM) | 0.008 (≈ 0.0207 µM) | – | –
OC(Cn1cncn1)(Cn1cncn1)c1ccc(F)cc1F [Fluconazole, reference compound] | – | 4 (≈ 13.1 µM) | – | 4 (≈ 13.1 µM) | > 4 | > 4
Cc1c(-c2ccccc2)c(N2CC[C@H](N(C)C)C2)n2cc(C(C)C)nc2c1C#N [Example 8] | >4 | 2 (≈ 5.16 µM) | 1 (≈ 2.58 µM) | 0.125 (≈ 0.323 µM) | – | –

Reference: patent US20070191395A1 (priority 2004, published 2007)
